Experimental data reported in patent US20260232578A1, “COMPOSITIONS AND METHODS FOR TRANSMUCOSAL ABSORPTION” (Tonix Pharma Limited, priority 2012, published 2026).
Where a name gives a salt, the structure may show the parent alone.

Tests used:
[1] = Stress stability at 50° C., purity profile; format: physicochemical
Description: In order to evaluate the stability of the formulations described above, prototype A, B, C, D were maintained under the 50° C. stress condition for 30 days.

5-HT1A receptor = target: T1, 5-HT1A receptor (Homo sapiens, UniProt P08908); test: Equilibrium receptor binding, recombinant human receptor
T1 construct: expressed in transfected cells
T1 sequence (P08908 1-422): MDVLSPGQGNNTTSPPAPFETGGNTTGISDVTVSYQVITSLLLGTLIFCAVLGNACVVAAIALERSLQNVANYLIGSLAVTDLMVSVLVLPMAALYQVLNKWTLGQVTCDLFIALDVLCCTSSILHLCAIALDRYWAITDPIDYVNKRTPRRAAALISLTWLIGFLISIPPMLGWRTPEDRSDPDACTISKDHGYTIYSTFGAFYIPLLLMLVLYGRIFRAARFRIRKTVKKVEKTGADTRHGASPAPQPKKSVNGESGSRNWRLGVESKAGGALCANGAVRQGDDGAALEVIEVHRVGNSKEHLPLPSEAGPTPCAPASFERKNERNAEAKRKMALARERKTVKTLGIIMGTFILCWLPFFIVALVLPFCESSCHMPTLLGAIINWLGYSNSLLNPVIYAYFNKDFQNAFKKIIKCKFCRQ

[2] = target: T2, adrenergic alpha-2A receptor (Alpha2A) (Homo sapiens, UniProt P08913); test: as above
T2 construct: expressed in transfected cells
T2 sequence (P08913 1-465): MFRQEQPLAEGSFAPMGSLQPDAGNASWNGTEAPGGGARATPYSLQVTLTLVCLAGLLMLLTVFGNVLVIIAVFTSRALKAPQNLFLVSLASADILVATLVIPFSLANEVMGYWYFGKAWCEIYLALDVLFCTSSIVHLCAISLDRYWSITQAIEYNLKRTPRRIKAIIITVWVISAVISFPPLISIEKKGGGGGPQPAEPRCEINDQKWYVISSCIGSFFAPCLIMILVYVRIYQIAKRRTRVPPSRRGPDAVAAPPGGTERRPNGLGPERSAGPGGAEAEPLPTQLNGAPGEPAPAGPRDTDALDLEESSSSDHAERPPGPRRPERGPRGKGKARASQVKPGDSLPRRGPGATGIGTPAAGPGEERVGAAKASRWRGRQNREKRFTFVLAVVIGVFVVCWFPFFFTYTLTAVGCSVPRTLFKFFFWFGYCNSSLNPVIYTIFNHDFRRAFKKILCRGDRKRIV

5-HT2C receptor = target: T3, 5-HT2C receptor (Homo sapiens, UniProt P28335); test: as above
T3 construct: expressed in transfected cells
T3 sequence (P28335 33-458): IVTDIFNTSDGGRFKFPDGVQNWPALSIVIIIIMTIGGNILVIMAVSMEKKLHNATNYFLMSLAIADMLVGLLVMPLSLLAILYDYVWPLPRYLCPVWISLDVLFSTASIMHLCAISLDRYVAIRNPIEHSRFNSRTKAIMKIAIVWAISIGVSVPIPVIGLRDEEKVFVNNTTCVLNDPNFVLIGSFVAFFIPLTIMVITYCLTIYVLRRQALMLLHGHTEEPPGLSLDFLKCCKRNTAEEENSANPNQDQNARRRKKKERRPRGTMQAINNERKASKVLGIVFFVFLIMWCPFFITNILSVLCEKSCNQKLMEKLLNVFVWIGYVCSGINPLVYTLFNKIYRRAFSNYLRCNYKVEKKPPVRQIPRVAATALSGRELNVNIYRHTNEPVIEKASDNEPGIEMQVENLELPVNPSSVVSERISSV

[3] = target: T4, adrenergic alpha-2C receptor (Alpha2C) (Homo sapiens, UniProt P18825); test: as above
T4 construct: expressed in transfected cells
T4 sequence (P18825 1-462): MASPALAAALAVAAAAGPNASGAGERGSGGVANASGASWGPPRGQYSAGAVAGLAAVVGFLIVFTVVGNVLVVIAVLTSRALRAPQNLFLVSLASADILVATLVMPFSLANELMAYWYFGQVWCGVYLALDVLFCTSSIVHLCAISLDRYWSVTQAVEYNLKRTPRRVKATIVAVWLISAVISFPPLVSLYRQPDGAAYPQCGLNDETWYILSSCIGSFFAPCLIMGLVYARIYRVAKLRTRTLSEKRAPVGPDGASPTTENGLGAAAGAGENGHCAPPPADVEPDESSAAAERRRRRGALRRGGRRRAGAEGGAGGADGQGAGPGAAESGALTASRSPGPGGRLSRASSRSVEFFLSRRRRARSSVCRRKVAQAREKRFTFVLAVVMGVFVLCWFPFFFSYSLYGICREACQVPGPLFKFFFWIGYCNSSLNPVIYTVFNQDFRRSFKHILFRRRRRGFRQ

muscarinic M2 receptor = muscarinic M2 receptor (Homo sapiens, UniProt P08172); test: as above; parameters: expressed in transfected cells
muscarinic M2 receptor, sequence (P08172 whole entry): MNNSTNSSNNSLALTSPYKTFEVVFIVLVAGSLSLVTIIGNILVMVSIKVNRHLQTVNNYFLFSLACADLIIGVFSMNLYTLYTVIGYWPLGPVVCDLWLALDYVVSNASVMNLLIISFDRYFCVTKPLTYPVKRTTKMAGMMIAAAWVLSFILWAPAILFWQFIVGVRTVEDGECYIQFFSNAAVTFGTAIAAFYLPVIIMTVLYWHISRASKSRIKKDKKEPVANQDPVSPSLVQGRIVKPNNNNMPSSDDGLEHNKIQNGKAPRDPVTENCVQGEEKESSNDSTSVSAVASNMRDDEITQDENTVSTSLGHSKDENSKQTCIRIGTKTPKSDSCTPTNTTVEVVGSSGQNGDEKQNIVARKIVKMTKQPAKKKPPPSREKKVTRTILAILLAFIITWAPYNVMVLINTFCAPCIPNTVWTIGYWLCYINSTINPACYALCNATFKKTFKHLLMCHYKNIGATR

[4] = T0, samples stored at room temperature
[5] = T15days, active ingredient without excipients

SMILES | Impurity 1 (Dibenzosuberenone, RT = about 56′) [1, 4] | Impurity 2 (Carbinole, RT = about 6′) [1, 4] | Impurity 4 (Amitriptyline, RT = about 15′) [1, 4] | Total Impurities [1, 4] [%] | Unknown 1 (RT = about 16′) [1, 4] [%] | Unknown 2 (RT = about 17.5′) [1, 4] | Unknown 3 (RT = about 7.5′) [1, 4] | Impurity 1 (Dibenzosuberenone, RT = about 56′) [1, 5] | Impurity 2 (Carbinole, RT = about 6′) [1, 5] | Impurity 4 (Amitriptyline, RT = about 15′) [1, 5] | Total Impurities [1, 5] [%] | Unknown 1 (RT = about 16′) [1, 5] | Unknown 2 (RT = about 17.5′) [1, 5] [%] | Unknown 3 (RT = about 7.5′) [1, 5] | Ki (5-HT1A receptor) [nM] | Ki [2] [nM] | Ki (5-HT2C receptor) [nM] | Ki [3] [nM] | Ki (muscarinic M2 receptor) [nM]
CN(C)CCC=C1c2ccccc2C=Cc2ccccc21 [Cyclobenzaprine HCl (Dipharma)] | Absent | Absent | Absent | 0.005 | 0.005 | Absent | 0.028% | Absent | Absent | Absent | 0.003 | Absent | 0.003 | 0.008% | – | – | – | – | –
CN(C)CCC=C1c2ccccc2C=Cc2ccccc21 [Cyclobenzaprine HCl (Sifavitor)] | Absent | Absent | Absent | 0.020 | 0.020 | Absent | Absent | Absent | Absent | Absent | 0.019 | Absent | 0.019 | Absent | – | – | – | – | –
CN(C)CCC=C1c2ccccc2CCc2ccccc21 [amitriptyline, 3-(10,11-dihydro-5H-dibenzo [a,d]cycloheptene-5-ylidene)-N,N-dimethyl-1-propanamine] | – | – | – | – | – | – | – | – | – | – | – | – | – | – | 220 | 250 | 28 | 14 | –
CNCCC=C1c2ccccc2CCc2ccccc21 [nortriptyline] | – | – | – | – | – | – | – | – | – | – | – | – | – | – | 100 | – | – | – | 140
